SMILES strings stand for the structures. Where two headings read alike, the source gives them in different places.

The subject of assay [1] is peripheral blood mononuclear cells (PBMC) stimulated with allogeneic PBMC or EBV-transformed human B cells (RPMI1788). Put plainly: Mixed lymphocyte reaction (MLR) assay. The format is cell-based. A digest of the protocol:
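Responder PBMC co-cultured in triplicate with 30 Gy-irradiated allogeneic PBMC or RPMI1788 B cells plus compound (DMSO stock 10 mM, diluted in medium). After 5 days at 37° C, 1 μCi [3H]-thymidine added for 16 h more; incorporated cpm counted and proliferation inhibition calculated.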

Assay [2] relates to production of human TNF-α by PBMC in response to LPS. The assay can be described thus: TNF-α assay (LPS-stimulated PBMC, sandwich ELISA). Format: cell-based. The protocol: Peripheral blood mononuclear cells (herein referred as PBMC), in response to stimulation by lipopolysaccharide (hereinafter LPS), a gram-negative bacterial endotoxin, produce various […], in particular human TNF-α. Inhibition of the activation of PBMC can therefore be measured by the level of suppression of the production of TNF-α by PBMC in response to stimulation by LPS. Inhibition measurement was performed as follows: PBMC were isolated from heparinized peripheral blood by density gradient centrifugation over Lymphoprep (commercially available from Nycomed, Norway). LPS was then added to the PMBC suspension in complete medium (10^6 cells/ml) at a final concentration of 1 μg/ml. The pteridine derivative to be tested was added at different concentrations (0.1 μM, 1 μM and 10 μM) and the cells were incubated at 37° C. for 72 hours in 5% CO2. The supernatants were collected, then TNF-α concentrations were measured with respectively an anti-TNF-α antibody in a sandwich ELISA (Duo Set ELISA human TNFα, commercially available from R&D Systems, United Kingdom). The colorimetric reading of the ELISA was measured by a Multiskan RC plate reader (commercially available from ThermoLabsystems, Finland) at 450 nm (reference wavelength: 690 nm). Data analysis was performed with Ascent software 2.6. (also from ThermoLabsystems, Finland): a standard curve (recombinant human TNFα) was drawn and the amount (pg/ml) of each sample on the standard curve was determined. The % suppression of human TNFα production by the pyrido[3,2-d]pyrimidine derivatives of the invention was calculated using the formula: [formula]
A general note: In an ELISA, binding on a coated surface is turned into a signal by an enzyme label.

The mark [3] stands for this setting: 50% suppression of the MLR, [3H]-thymidine incorporation, read-out: MLR.
[4] abbreviates: LPS 1 μg/ml, 72 hours, read-out: TNF α.
Where [5] appears, read: Homo sapiens, RPMI-1788, 50% suppression of the MLR, [3H]-thymidine incorporation, read-out: MLR.
Setting [6] is: Homo sapiens, PBMC, LPS 1 μg/ml, 72 hours, read-out: TNF α.

For `COc1ccc(-c2ccc3ncnc(N4CCN(CCOc5ccccc5)CC4)c3n2)cc1OC` [Example 5, 4-[(2-phenoxyethyl)-piperazin-1-yl]-6-(3,4-dimethoxyphenyl)-pyrido[3,2-d]pyrimidine], the IC50 in assay [1] (setting [3]) was determined as 0.1 µM; in assay [2] (setting [4]), 0.65 µM.

Consider `COc1ccc(-c2ccc3nc(N(C)C)nc(N4CCN(C(=O)Nc5cccc(C)c5)CC4)c3n2)cc1OC` [Example 15], for which the IC50 amounted to 0.4 µM in assay [1] (setting [3]) and 3.3 µM in assay [2] (setting [4]).

In the case of `COc1ccc(-c2ccc3nc(OC(C)CN4CCCC4)nc(N4CCN(C(=O)Nc5cccc(C)c5)CC4)c3n2)cc1OC` (stereo not shown) [Example 17], the IC50 in assay [1] (setting [3]) was 2.7 µM; in assay [2] (setting [4]), 5.2 µM.

Take `COc1ccc(-c2ccc3nc(N)nc(OCCOc4ccccc4)c3n2)cc1OC` [Example 25, 2-amino-4-(2-phenoxyethoxy)-6-(3,4-dimethoxyphenyl)-pyrido[3,2-d]pyrimidine]: the IC50 in assay [1] (setting [5]) is 0.3 µM; in assay [2] (setting [6]), 0.7 µM.

Take `COc1ccc(-c2ccc3nc(N)nc(Nc4ccc5c(c4)OCO5)c3n2)cc1OC` [Example 28, 2-amino-4-[3,4-(methylenedioxy)aniline]-6-(3,4-dimethoxyphenyl)pyrido[3,2-d]pyrimidine]: the figures for the IC50 in assay [1] (setting [3]) and in assay [2] (setting [4]) were 0.7 µM and 0.8 µM, respectively.

Consider `COc1ccc(-c2ccc3nc(N)nc(Nc4cccc(Br)c4)c3n2)cc1OC` [Example 29, 2-amino-4-(3-bromo-anilino)-6-(3,4-dimethoxyphenyl)pyrido[3,2-d]-pyrimidine], for which the figures for the IC50 in assay [1] (setting [5]) and in assay [2] (setting [6]) were 0.7 µM and 0.8 µM, respectively.

On to `COc1ccc(-c2ccc3nc(N)nc(N4CCN(C)CC4)c3n2)cc1OC` [Example 31, 2-amino-4-(N-methyl-piperazino)-6-(3,4-dimethoxyphenyl)-pyrido[3,2-d]pyrimidine], for which the IC50 amounted to 0.9 µM in assay [1] (setting [5]) and 0.8 µM in assay [2] (setting [6]).

On to `COc1ccc(-c2ccc3nc(N)nc(NCCN4CCOCC4)c3n2)cc1OC` [Example 33, 2-amino-4-[4-(2-aminoethyl)morpholino]-6-(3,4-dimethoxyphenyl)-pyrido[3,2-d]pyrimidine], for which the IC50 in assay [1] (setting [3]) amounted to 1.9 µM; in assay [2] (setting [4]) it was 0.7 µM.

`COc1ccc(-c2ccc3nc(N)nc(NCC(OC)OC)c3n2)cc1OC` [Example 34, 2-amino-4-(2,2-dimethoxyethylamino)-6-(3,4-dimethoxyphenyl)pyrido[3,2-d]pyrimidine]: the IC50 in assay [1] (Homo sapiens, RPMI-1788, read-out: MLR (μM)) amounted to 0.8 µM; in assay [2] (Homo sapiens, PBMC, 72 h, read-out: TNF α (μM)) it was 0.6 µM.

As for `COc1ccc(-c2ccc3nc(N)nc(NCc4ccccn4)c3n2)cc1OC` [Example 35, 2-amino-4-[2-(aminomethyl)pyridino]-6-(3,4-dimethoxyphenyl)-pyrido[3,2-d]pyrimidine], the IC50 in assay [1] (setting [3]) came out at 0.8 µM; in assay [2] (setting [4]), 0.7 µM.

Take `COc1ccc(-c2ccc3nc(N)nc(N4CCN(Cc5ccc6c(c5)OCO6)CC4)c3n2)cc1OC` [Example 50, 2-amino-4-(1-piperonyl-piperazin-1-yl)-6-(3,4-dimethoxyphenyl)-pyrido[3,2-d]pyrimidine]: the IC50 in assay [1] (setting [3]) turned out to be 7.4 µM; in assay [2] (setting [4]) it was 8.5 µM.

Turning to `COc1ccc(-c2ccc3nc(N)nc(N4CCN(Cc5ccccc5)CC4)c3n2)cc1OC` [Example 52, 2-amino-4-(1-benzylpiperazin-1-yl)-6-(3,4-dimethoxyphenyl)-pyrido[3,2-d]pyrimidine], the IC50 is 0.8 µM in assay [1] (setting [3]) and 0.46 µM in assay [2] (setting [4]).

Consider `COc1ccc(-c2ccc3nc(N)nc(N4CCN(C(=O)Nc5cc(Cl)nc(Cl)c5)CC4)c3n2)cc1OC` [Example 55, 2-amino-4(N-2,6-dichloro-pyridinyl-carbamoyl-piperazin-1-yl)-6-(3,4-dimethoxyphenyl)-pyrido[3,2-d]pyrimidine], for which the results for the IC50 in assay [1] (setting [3]) and in assay [2] (setting [4]) were 0.3 µM and 0.4 µM, respectively.

For the compound `COc1nc(N2CCN(C(=O)Nc3cccc(C)c3)CC2)c2nc(-c3ccc(OC)c(OC)c3)ccc2n1` [Example 90, 2-methoxy-4-[(N-3-methyl-phenylcarbamoyl)-piperazin-1-yl]-6-(3,4-dimethoxy-phenyl)-pyrido[3,2-d]pyrimidine], the IC50 is 0.14 µM in assay [1] (setting [3]) and 0.5 µM in assay [2] (setting [4]).

Consider `COc1cc(-c2ccc3nc(N)nc(N4CCOCC4)c3n2)ccc1O` [Example 96, 2-amino-4-(N-morpholino)-6-(4-hydroxy-3-methoxy)-pyrido[3,2-d]pyrimidine], for which the IC50 in assay [1] (setting [3]) was 0.8 µM; in assay [2] (setting [4]) it was 0.6 µM.

Consider `CCOc1ccc(-c2ccc3nc(N)nc(N4CCOCC4)c3n2)cc1OC` [Example 97, 2-amino-4-(N-morpholino)-6-(4-ethoxy-3-methoxyphenyl)-pyrido[3,2-d]pyrimidine], for which the IC50 came to 0.5 µM in assay [1] (setting [3]) and 0.3 µM in assay [2] (setting [4]).

As for `COc1cc(-c2ccc3nc(N)nc(N4CCOCC4)c3n2)ccc1OC(C)C` [Example 99, 2-amino-4-(N-morpholino)-6-(4-isopropoxy-3-methoxy-phenyl)-pyrido[3,2-d]pyrimidine], the values for the IC50 in assay [1] (setting [3]) and in assay [2] (setting [4]) were 0.7 µM and 1 µM, respectively.

Regarding `COc1cc(-c2ccc3nc(N)nc(N4CCNCC4)c3n2)ccc1O` [Example 100, 2-amino-4-(N-piperazin-1-yl)-6-(3-methoxy-4-hydroxyphenyl)-pyrido[3,2-d]pyrimidine], the values for the IC50 in assay [1] (setting [3]) and in assay [2] (setting [4]) were 3.3 µM and 2.4 µM, respectively.

In the case of `COc1cc(-c2ccc3nc(N)nc(N4CCN(C(=O)Nc5ccc(F)cc5)CC4)c3n2)ccc1O` [Example 101, 2-amino-4-[(N-4-fluoro-phenyl-carbamoyl)-piperazin-1-yl]-6-(4-hydroxy-3-methoxy-phenyl)-pyrido[3,2-d]pyrimidine], the IC50 in assay [1] (setting [3]) was determined as 0.5 µM; in assay [2] (setting [4]), 0.6 µM.

`CCOc1ccc(-c2ccc3nc(N)nc(N4CCN(C(=O)Nc5ccc(F)cc5)CC4)c3n2)cc1OC` [Example 102]: the IC50 amounted to 0.04 µM in assay [1] (setting [3]) and 0.6 µM in assay [2] (setting [4]).

`COc1cc(-c2ccc3nc(N)nc(N4CCN(C(=O)Nc5ccc(F)cc5)CC4)c3n2)ccc1OC(C)C` [Example 103, 2-amino-4-[(N-4-fluoro-phenyl-carbamoyl)-piperazin-1-yl]-6-(4-isopropoxy-3-methoxy-phenyl)-pyrido[3,2-d]pyrimidine]: the IC50 in assay [1] (setting [3]) was determined as 0.07 µM; in assay [2] (setting [4]) it was 6.4 µM.

Consider `COc1cc(-c2ccc3nc(N)nc(N4CCN(C(=O)Nc5cccc(C)c5)CC4)c3n2)ccc1O` [Example 104, 2-amino-4-[(N-3-methyl-phenyl-carbamoyl)-piperazin-1-yl]-6-(4-hydroxy-3-methoxyphenyl)-pyrido[3,2-d]pyrimidine], for which the IC50 in assay [1] (setting [3]) was 0.4 µM; in assay [2] (setting [4]), 0.3 µM.

For the compound `COc1ccc(-c2ccc3ncnc(N4CCN(c5ccc(C)cc5)CC4)c3n2)cc1OC` [Example 105, 4-(4-methyl-phenyl-piperazin-1-yl)-6-(3,4-dimethoxy-phenyl)-pyrido[3,2-d]pyrimidine], the figures for the IC50 in assay [1] (setting [3]) and in assay [2] (setting [4]) were 0.8 µM and 0.09 µM, respectively.

On to `COc1ccc(-c2ccc3nc(N)nc(N4CCN(CC(=O)NCCc5ccccc5)CC4)c3n2)cc1OC` [Example 270, 2-amino-4-[4-(N-2-phenylethylacetamid-2-yl)piperazin-1-yl]-6-(3,4-dimethoxyphenyl)-pyrido[3,2-d]pyrimidine], for which, in assay [2] (setting [6]), the IC50 came out at 0.3 µM.

Turning to `COc1ccc(-c2ccc3nc(N)nc(NCCC(=O)N4CCN(C(C)=O)CC4)c3n2)cc1OC` [Example 272, 2-amino-4-[3-(4-acetylpiperazin-1-yl)-propan-3-one-1-yl-amino]-6-(3,4-dimethoxyphenyl)-pyrido[3,2-d]pyrimidine], in assay [2] (setting [6]), the IC50 was 0.7 µM.

Turning to `COc1ccc(-c2ccc3nc(N)nc(N4CCN(CC(=O)N5CCCC5)CC4)c3n2)cc1OC` [Example 273, 2-amino-4-(N-pyrrolidinyl-acetamid-2-yl-piperazin-1-yl)-6-(3,4-dimethoxyphenyl)pyrido[3,2-d]pyrimidine], the IC50 in assay [2] (setting [6]) amounted to 0.08 µM.

Take `COc1ccc(-c2ccc3nc(N)nc(N4CCN(CC(=O)Nc5ccccn5)CC4)c3n2)cc1OC` [Example 274, 2-amino-4-(N-pyridinylacetamid-2-yl-piperazin-1-yl)-6-(3,4-dimethoxyphenyl)-pyrido[3,2-d]pyrimidine]: the IC50 in assay [2] (setting [6]) came out at 0.08 µM.

Take `COc1ccc(-c2ccc3nc(N)nc(N4CCN(CC(=O)N5CCOCC5)CC4)c3c2)cc1OC` [Example 275, 2-amino-4-[N-(piperazino)-acetyl-morpholino]-6-(3,4-dimethoxyphenyl)-pyrido[3,2-d]pyrimidine]: the IC50 in assay [2] (setting [6]) worked out at 0.097 µM.

For `COc1ccc(-c2ccc3nc(N)nc(NCC(=O)N4CCN(C)CC4)c3n2)cc1OC` [Example 276, 2-amino-4-[2-amino-1-(4-methyl-piperazin-1-yl)-ethanone]-6-(3,4-dimethoxyphenyl)-pyrido[3,2-d]pyrimidine], the IC50 in assay [2] (setting [6]) turned out to be 0.6 µM.

(Values after US20090264415A2 (priority 2004, published 2009).)
